In the supplement of paper PMC10307832:

How the values were obtained:
Experiment in all cases: relative viability (nuclei count vs DMSO), 5 days (fraction); higher = more cells survive
[1] = compound: C1CNCCC1C2=CC(=NN2)C3=CC=NC=C3 + COc1cc2c(Oc3ccc(NC(=O)C4(C(=O)Nc5ccc(F)cc5)CC4)cc3F)ccnc2cc1OCCCN1CCOCC1 [Foretinib] (partner 0.25 µM)
In short: (§1)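 Five library-drug doses in √10 steps were combined with a fixed anchor-drug dose, or a single drug was given alone, by pin tool to lung cancer cell lines in 1536-well plates the day after seeding. Nuclei were stained and counted after 5 days. Relative viability is the nuclei count in treated wells over that in vehicle wells, taken as the median of duplicate plates.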

[2] = compound: C[C@@H](N)c1ccc(C(=O)Nc2ccnc3[nH]ccc23)cc1 + CCNC(=O)c1noc(-c2cc(C(C)C)c(O)cc2O)c1-c1ccc(CN2CCOCC2)cc1 [Luminespib] (partner 0.01 µM)
In short: as §1

[3] = compound: C[C@@H](N)c1ccc(C(=O)Nc2ccnc3[nH]ccc23)cc1 + COc1cc2c(Oc3ccc(NC(=O)C4(C(=O)Nc5ccc(F)cc5)CC4)cc3F)ccnc2cc1OCCCN1CCOCC1 [Foretinib] (partner 0.25 µM)
In short: as §1

[4] = compound: O[C@H]1CC[C@H](Nc2ncc3nc(Nc4c(F)cc(F)cc4F)n([C@H]4CCOC4)c3n2)CC1 [Tanzisertib] + NC(=O)Nc1cc(-c2cccc(F)c2)sc1C(=O)N[C@H]1CCCNC1 [AZD7762] (partner 0.2 µM)
In short: as §1

| Cell Line | relative viability ([1]; first compound 0.08 µM) | relative viability ([1]; first compound 0.8 µM) | relative viability ([1]; first compound 2.53 µM) | relative viability ([1]; first compound 8 µM) | relative viability ([2]; first compound 0.04 µM) | relative viability ([2]; first compound 0.1265 µM) | relative viability ([2]; first compound 0.4 µM) | relative viability ([2]; first compound 1.265 µM) | relative viability ([2]; first compound 4 µM) | relative viability ([3]; first compound 0.04 µM) | relative viability ([3]; first compound 0.1265 µM) | relative viability ([3]; first compound 0.4 µM) | relative viability ([3]; first compound 1.265 µM) | relative viability ([3]; first compound 4 µM) | relative viability ([4]; first compound 0.08 µM) | relative viability ([4]; first compound 0.253 µM) | relative viability ([4]; first compound 0.8 µM) | relative viability ([4]; first compound 2.53 µM) | relative viability ([4]; first compound 8 µM) |
| --- | --- | --- | --- | --- | --- | --- | --- | --- | --- | --- | --- | --- | --- | --- | --- | --- | --- | --- | --- |
| LCLC-103H | 0.777 | 0.695 | 0.72 | 0.883 | 1.15 | 0.914 | 0.956 | 0.911 | 0.69 | 0.901 | 0.821 | 0.69 | 0.77 | 0.643 | 0.877 | 0.735 | 0.769 | 0.8 | 0.754 |
| NCI-H23 | 0.766 | 1.19 | 1.25 | 1.11 | 0.198 | 0.235 | 0.203 | – | 0.21 | 0.985 | 1.09 | 0.981 | – | 1.01 | 0.224 | 0.245 | 0.236 | 0.317 | 0.214 |
| NCI-H596 | 0.87 | 0.834 | 0.965 | 0.889 | 1.33 | 0.912 | 0.98 | – | 0.975 | 1.07 | 0.82 | 0.772 | – | 0.761 | 1.04 | 1.04 | 1.12 | 0.995 | 1.04 |
| NCI-H460 | 0.978 | 1.1 | 1.02 | 1.07 | 0.04 | 0.0445 | 0.0267 | 0.0276 | 0.0227 | 0.984 | 1.01 | 1 | 0.986 | 1 | 0.661 | 0.627 | 0.591 | 0.63 | 0.628 |
| NCI-H2085 | 1.02 | 0.698 | 0.916 | 0.901 | 0.453 | 0.41 | 0.405 | 0.386 | 0.38 | 1.03 | 0.989 | 0.918 | 0.901 | 0.79 | – | 0.974 | 1.02 | 0.981 | 1.02 |
| PC-14 | 0.942 | 1.03 | 1.01 | 0.942 | – | 0.183 | 0.154 | – | 0.132 | 0.753 | 0.943 | 0.95 | 0.877 | 0.832 | 0.476 | 0.531 | 0.367 | 0.386 | 0.213 |
| HOP-62 | 1.06 | 1.31 | 1.18 | 1.09 | 0.732 | 0.812 | 0.94 | 0.893 | 0.817 | 1.09 | 1.05 | 1.03 | 1.16 | 0.982 | 0.483 | 0.503 | 0.708 | 0.625 | 0.47 |
| NCI-H2087 | 0.982 | 1.19 | 1.05 | 1.1 | 0.152 | 0.153 | 0.126 | – | 0.174 | 1.16 | 1.07 | 1.1 | – | 0.983 | 1.48 | 1.07 | 1.33 | 1.41 | 1.26 |
| NCI-H1793 | 0.619 | 0.659 | 0.72 | 0.654 | 0.165 | 0.184 | 0.178 | – | 0.183 | 0.692 | 0.829 | 0.946 | – | 0.83 | 0.643 | 0.574 | 0.462 | 0.406 | 0.397 |
| PC-3 [JPC-3] | 1.01 | 1.07 | 1.1 | 1.04 | 0.714 | 0.68 | 0.73 | 0.846 | 0.607 | 1.05 | 0.996 | 1.09 | 0.982 | 0.936 | 0.81 | 0.937 | 0.844 | 0.733 | 0.679 |
| H3255 | 0.861 | 0.983 | 1.03 | 0.9 | 0.778 | 1.04 | 1 | 0.763 | 0.944 | 0.855 | 0.939 | 1.14 | 0.731 | 0.892 | 0.95 | 0.932 | 1 | 0.791 | 0.554 |
| EMC-BAC-2 | 0.937 | 1.05 | 1.16 | 0.843 | 1.15 | 1.22 | 1.25 | 1.09 | 1.04 | 1.08 | 1.05 | 1.11 | 0.967 | 0.903 | 1.16 | 1.15 | 1.04 | 0.947 | 1.04 |
| SW 900 | 0.899 | 1.01 | 0.856 | 1.01 | 0.185 | 0.214 | 0.152 | 0.172 | 0.152 | 1.1 | 0.972 | 0.867 | 0.86 | 0.762 | – | 0.646 | 0.603 | 0.727 | 0.423 |
| CAL-12T | 1.09 | 1.11 | 1.22 | 1.06 | 0.297 | 0.421 | 0.322 | 0.432 | 0.22 | 1.36 | 1.27 | 1.13 | 1.27 | 0.909 | 0.606 | 0.79 | 0.623 | 0.636 | 0.647 |
| NCI-H650 | 1 | 0.924 | 1.06 | 0.998 | – | 0.928 | 0.844 | 0.718 | 0.635 | – | 0.991 | 1.03 | 0.899 | 0.712 | 1.03 | 1.32 | 1.01 | 1.3 | 0.489 |
| NCI-H1355 | 0.906 | 0.938 | 1.05 | 0.923 | 0.759 | 0.72 | 0.807 | 0.66 | 0.625 | 1.01 | 1.02 | 1.09 | 1.1 | 0.924 | 0.847 | 0.822 | 0.813 | 0.71 | 0.708 |
| NCI-H838 | 1.03 | 0.996 | 1.08 | 0.996 | 0.355 | 0.315 | 0.32 | 0.282 | 0.222 | 0.965 | 0.957 | 0.919 | 0.634 | 0.409 | 0.964 | 0.962 | 0.889 | 0.909 | 0.972 |
| LK-2 | 1.05 | 1.27 | 1.03 | 1.42 | 0.202 | – | 0.218 | – | 0.238 | 1.32 | – | 1.49 | – | 1.46 | 0.41 | 0.455 | 0.421 | 0.32 | 0.346 |
| NCI-H322M | 0.965 | 1.1 | 1.02 | 1.13 | 1.08 | 1.1 | 1.03 | – | 0.742 | 1.29 | 1.19 | 1.29 | – | 1.39 | 0.567 | 0.547 | 0.547 | 0.527 | 0.492 |
| NCI-H1395 | 0.982 | 0.821 | 1.15 | 1.04 | 0.662 | 0.716 | 0.64 | 0.669 | 0.685 | 1.07 | 1.14 | 1.06 | 0.995 | 0.909 | 0.439 | 0.399 | 0.382 | 0.394 | 0.425 |
| NCI-H441 | 0.945 | 1.18 | 1.12 | 0.834 | 0.451 | 0.342 | 0.326 | – | 0.403 | 0.988 | 1.05 | 1.02 | – | 0.843 | 1.21 | 0.989 | 1.07 | 1.11 | 1.08 |
